Structures can show the parent of a compound that is named as a salt.
Columns and labels:
male Sprague-Dawley rats = assay: CCl4 induced lethality in rats; format: in vivo, rat; conditions: for Survival after CCl4 treatment: 100 mg/kg ip 24 h prior, […] CCl4 oral
liver [1] = assay: CCl4 induced hepatotoxicity in rats (serum AST/ALT); format: in vivo, rat
Method in brief: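 Male Sprague-Dawley rats received test compounds i.p. at 100 mg/kg 20–24 h before oral CCl4 (2.9 g/kg or 1 g/kg). Serum AST and ALT were measured 48 h after CCl4 challenge.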

liver [2] = assay: Acetaminophen-induced hepatotoxicity in rats (AST/ALT); format: in vivo, rat
Protocol: In vivo experiments were performed to determine if alpha-TS administration protects the liver from the hepatotoxic effects of acetaminophen. Acetaminophen is a commonly used analgesic that is metabolized to a reactive intermediate. […] The other group of male Sprague-Dawley rats received only the acetaminophen challenge. Forty eight hours after the challenge the rats were sacrificed and the levels of aspartate aminotransferase (AST) and alanine aminotransferase (ALT) were measured.
FIGS. 10 and 11 show the results of in vivo experiments where male Sprague-Dawley rats were given an oral dose of 15 or 30 mg THA/kg body weight, respectively. In the experiments, one group of rats was provided with an i.p. dose of 100 mg cholesteryl succinate tris salt/kg body weight 20 hours prior to the THA challenge, another group of rats only received the THA challenge, and the last group of rats acted as a control and were not challenged. The serum AST levels were determined with respect to time after the THA challenge.

[3] = tested on: L1210 murine leukemia cells; assay: Inhibition of L1210 leukemia cell growth in vitro; format: cell-based, mouse
Protocol: Similar in vitro experiments were conducted with cholesteryl succinate tris salt and alpha-TS tris salt.

rat hepatocytes = assay: EMS-induced lipid peroxidation in rat hepatocyte suspensions; format: cell-based; conditions: 50 mM EMS
[4] = tested on: human neuroblastoma cells; conditions: 10 μM; cited from earlier work
[5] = 50 mg/kg ip, 48 h after 1 g/kg CCl4 (Table 28)
[6] = 100 mg/kg ip 20 h prior, 48 h after 1 g/kg CCl4 (Table 20)
[7] = 100 mg/kg ip (dihydrocholesterol 80 + sodium sulfate 30 mg/kg), 48 h after 1 g/kg CCl4 (Table 35)
[8] = 100 mg/kg ip, 30 min after CCl4 1 g/kg (Table 29)
[9] = 100 mg/kg ip, 30 min prior to CCl4 1 g/kg (Table 29)
[10] = 100 mg/kg ip, 20 hours prior to CCl4 1 g/kg (Table 29)
[11] = 100 mg/kg ip, 48 h after 1 g/kg CCl4 (Table 28)
[12] = 100 mg/kg ip, 48 h after 1 g/kg CCl4 (Table 31)
[13] = 100 mg/kg ip, 48 h after 1 g/kg CCl4 (Table 37)
[14] = 100 mg/kg ip, 48 h after 1 g/kg CCl4 (Table 40)
[15] = 100 mg/kg ip, PEG 400 vehicle, 48 h after 1 g/kg CCl4 (Table 34)
[16] = 100 mg/kg ip, immediately prior to CCl4 1 g/kg (Table 29)
[17] = 100 mg/kg oral 20 h prior, 48 h after 1 g/kg CCl4 (Table 20)
[18] = 200 mg/kg ip, 48 h after 1 g/kg CCl4 (Table 28)
[19] = PEG 400 vehicle, ip 20 h prior, 24 hrs after 2 g/kg CCl4 (Table 32)
[20] = PEG 400 vehicle, ip 20 h prior, 48 hrs after 2 g/kg CCl4 (Table 32)
[21] = PEG 400 vehicle, ip 20 h prior, 72 hrs after 2 g/kg CCl4 (Table 32)
[22] = 100 mg/kg ip 20 hrs prior, 48 h after 2 g/kg AP (Table 23)
[23] = 100 mg/kg ip 20 h prior, 48 h after 1 g/kg CCl4 (Table 27), listed as Alpha Tocopheryl Succinate free acid
[24] = rat plasma, 100 mg/kg ip 24 h prior, 48 h after […] CCl4
[25] = 100 mg/kg ip 24 h prior, acetaminophen 2.5 g/kg

Structure (SMILES): CC(C)CCC[C@@H](C)[C@H]1CC[C@H]2[C@@H]3CC=C4C[C@@H](OC(=O)CCC(=O)O)CC[C@]4(C)[C@H]3CC[C@]12C [Cholesteryl Succinate tris salt]
- Survival after CCl4 treatment (male Sprague-Dawley rats): Yes
- ALT (liver [1]; [5]): 0.16 ± 0.11 10^3 units/L
- AST (liver [1]; [5]): 0.56 ± 0.35 10^3 units/L
- Serum AST Levels (liver [1]; 100 mg/kg ip 20 h prior, 24 hrs after 2 g/kg CCl4 (Table 26), tris salt): 0.57 ± 0.38 10^3 units/L
- ALT (liver [1]; [6]): 0.122 ± 0.034 10^3 units/L
- AST (liver [1]; [6]): 0.41 ± 0.08 10^3 units/L
- Serum AST Levels (liver [1]; 100 mg/kg ip 20 h prior, 48 hrs after 2 g/kg CCl4 (Table 26), tris salt): 0.19 ± 0.07 10^3 units/L
- ALT (liver [1]; [7]): 0.04 ± 0.02 10^3 units/L
- AST (liver [1]; [7]): 0.22 ± 0.06 10^3 units/L
- ALT (liver [1]; [8]): 1.50 ± 0.79 10^3 units/L
- AST (liver [1]; [8]): 7.87 ± 4.09 10^3 units/L
- ALT (liver [1]; [9]): 2.12 ± 1.43 10^3 units/L
- AST (liver [1]; [9]): 9.09 ± 4.38 10^3 units/L
- ALT (liver [1]; [10]): 0.04 ± 0.01 10^3 units/L
- AST (liver [1]; [10]): 0.12 ± 0.02 10^3 units/L
- ALT (liver [1]; [11]): 0.04 ± 0.02 10^3 units/L
- AST (liver [1]; [11]): 0.22 ± 0.06 10^3 units/L
- ALT (liver [1]; [12]): 0.02 ± 0 10^3 units/L
- AST (liver [1]; [12]): 0.10 ± 0.03 10^3 units/L
- ALT (liver [1]; [13]): 0.09 ± 0.01 10^3 units/L
- AST (liver [1]; [13]): 0.21 ± 0.03 10^3 units/L
- ALT (liver [1]; [14]): 0.04 ± 0.01 10^3 units/L
- AST (liver [1]; [14]): 0.12 ± 0.02 10^3 units/L
- ALT (liver [1]; [15]): 0.07 ± 0.03 10^3 units/L
- AST (liver [1]; [15]): 0.29 ± 0.22 10^3 units/L
- ALT (liver [1]; [16]): 1.12 ± 1.38 10^3 units/L
- AST (liver [1]; [16]): 6.69 ± 1.87 10^3 units/L
- SGOT Levels (liver [1]; 100 mg/kg ip, 48 h after 1.0 g/kg CCl4): 0.10 ± 0.03 10^3 units/L
- ALT (liver [1]; [17]): 4.09 ± 1.191 10^3 units/L
- AST (liver [1]; [17]): 12.51 ± 41.31 10^3 units/L
- ALT (liver [1]; [18]): 0.03 ± 0.01 10^3 units/L
- AST (liver [1]; [18]): 0.16 ± 0.08 10^3 units/L
- Serum AST Levels (liver [1]; [19]): .19 ± .10 10^3 units/L
- Serum AST Levels (liver [1]; [20]): .10 ± .02 10^3 units/L
- Serum AST Levels (liver [1]; [21]): .10 ± .02 10^3 units/L
- inhibition in vivo at 100 mg/kg (liver [1]; Rattus norvegicus, ip, 48 h, read-out: % Hepatoprotection): 100%
- protection against CCl4 hepatotoxicity (in words) (liver [1]; rats, serum enzyme levels): complete protection
- Serum ALT Level (liver [2]; [22]): 158 ± 77 Units/L
- Serum AST Level (liver [2]; [22]): 785 ± 495 Units/L
- growth rate of L1210 cells (FIG. 7) [3]: significantly suppress the growth rate of L1210 cells

Structure (SMILES): Cc1c(C)c2c(c(C)c1OC(=O)CCC(=O)O)CC[C@@](C)(CCC[C@H](C)CCC[C@H](C)CCCC(C)C)O2 [alpha-TS, d-alpha-tocopheryl succinate]
- Lipid Peroxidation (rat hepatocytes; 5 Hrs, concentrations as cell death (Table 15)): 0.9 nmolMDA/10^6 cells
- inhibition at 25 µM (rat hepatocytes; Rattus norvegicus, Hepatocyte, 25 μM): 100%
- Survival after CCl4 treatment (male Sprague-Dawley rats): Yes
- Protection from CCl4 (male Sprague-Dawley rats; 100 mg/kg ip (Table 5)): Yes
- Days Survived after CCl4 (male Sprague-Dawley rats; 100 mg/kg ip, 1 hour after CCl4 and daily thereafter): 2 days
- Days Survived after CCl4 (male Sprague-Dawley rats; 100 mg/kg ip, 1 hour prior and daily thereafter): > 7 days
- Days Survived After CCl4 Treatment (male Sprague-Dawley rats; 100 mg/kg ip, 24 h prior, CCl4 3.8 g/kg): > 7 days
- Days Survived After CCl4 Treatment (male Sprague-Dawley rats; 100 mg/kg ip, 24 h prior, CCl4 5.0 g/kg): 2 days
- Days Survived After CCl4 Treatment (male Sprague-Dawley rats; 100 mg/kg ip, 24 h prior, CCl4 […]): > 7 days
- Days Survived after CCl4 (male Sprague-Dawley rats; 100 mg/kg ip, single dose 24 h prior to CCl4 […]): > 7 days
- cytoprotection against CCl4 lethality (male Sprague-Dawley rats; 100 mg/kg oral): not observed
- Protection from CCl4 (male Sprague-Dawley rats; 100 mg/kg oral (Table 5)): No
- Days Survived After CCl4 Treatment (male Sprague-Dawley rats; 100 mg/kg oral, 24 h prior, CCl4 2.2 g/kg): > 7 days
- Days Survived After CCl4 Treatment (male Sprague-Dawley rats; 100 mg/kg oral, 24 h prior, CCl4 3.8 g/kg): 2 days
- Days Survived After CCl4 Treatment (male Sprague-Dawley rats; 100 mg/kg oral, 24 h prior, CCl4 5.0 g/kg): 2 days
- Days Survived After CCl4 Treatment (male Sprague-Dawley rats; 100 mg/kg oral, 24 h prior, CCl4 […]): 3 days
- Days Survived After CCl4 Treatment (male Sprague-Dawley rats; 25 m/kg, single dose 24 h prior): > 7 days
- incubation time required for cytoprotection (male Sprague-Dawley rats; single dose): greater than 12 hours
- ALT (liver [1]; [23]): 1.08 ± 0.23 10^3 units/L
- AST (liver [1]; [23]): 2.06 ± 0.53 10^3 units/L
- Serum AST Levels (liver [1]; [19]): .38 ± .15 10^3 units/L
- Serum AST Levels (liver [1]; [20]): .39 ± .22 10^3 units/L
- Serum AST Levels (liver [1]; [21]): .14 ± .06 10^3 units/L
- ALT (liver [1]; [24]): 631 ± 17 Units/L
- AST (liver [1]; [24]): 3,430 ± 1500 Units/L
- ALT (liver [2]; [25]): 432 ± 188 Units/L
- AST (liver [2]; [25]): 1,659 ± 607 Units/L
- minimal effective concentration ([3]; Mus musculus, L1210, free acid, 72 hours, read-out: concentration that significantly suppresses growth rate of L1210 cells): > 100 µM
- tumor cell growth [4]: inhibits tumor cell growth

Reference: patent US5336485A, “Method for protecting animals against tacrine induced cytotoxic injury using sterol compounds” (priority 1993, dated 1994)
